Measured values reported in PMC6219560, “An Electroencephalography Bioassay for Preclinical Testing of Analgesic Efficacy” (Scientific Reports, 2018).
Read-outs that look alike come from different tables or passages of the source.

Tests used:
[1] = system: rats with CCI; set-up: method as in PMID 23489258; conditions: single doses (i.p.), rats with CCI ref 38; cited from earlier work
[2] = Pharmacokinetics (PK) study: drug plasma concentration in rats by LC-MS/MS; format: in vivo, rat; conditions: for concentration at 30 min: geomean (% coefficient of variation), n = 3
Procedure: Rats (n = 3 per group) were intraperitoneally treated either with 3 or 100 mg/kg of pregabalin, or orally either with 1 or 10 mg/kg of EMA401, or 80 mg/kg of minocycline. At 0.5, 1, and 2 hours after treatment, approximately 150 µL of blood was collected from the jugular vein using a heparinized syringe with a needle. Blood samples were then centrifuged at 1700 g at 4 °C for 10 minutes. Plasma samples were then separated and stored at −20 °C until analysis. Five or 10 μL of plasma samples were diluted with 300 μL of deproteinization solution containing internal standards (5 nM buspirone, 20 nM tolbutamide, 10 nM reserpine in acetonitorile/methanol = 9: 1) and shaken for 5 minutes at room temperature, and centrifuged at 1000 g for 15 minutes. Then, the supernatant was analyzed by LC-MS/MS (Xevo TQ-S Tandem Quadrupole Mass Spectrometry, Waters) for quantification of pregabalin. Data analysis were performed with MassLynx Mass Spectometry Software and TargetLynx Application manager (Waters).

[3] = system: rat model of neuropathic pain (CCI); assay: EEG theta power over primary somatosensory cortex in awake rats with CCI; format: in vivo; conditions: for Longitudinal effects on theta power and PWL: single dose 10 mg/kg, n=4
Procedure: These procedures were performed under anesthesia (isoflurane, 2–3.5%). The head was fixed in a stereotaxic apparatus, and skull was exposed after a small skin incision. A stainless steel screw electrode (0–80 ga 1/8 inch, impedance = 0.6 Ω; component Supply Company, Fort Meade, FL) was placed over intact skull (i.e. epicranially) corresponding to primary somatosensory cortex or S1 contralateral to nerve injury (Bregma −2, 2 mm lateral). Minimal craniotomies were used to place 3 stabilization screws (corresponding to Bregma +1.4, 2 mm bilaterally and Bregma −4.8 mm, midline). The EEG screw was threaded with a silver wire and attached to a female miniature pin connector (A&M Systems, Sequim, WA). All screws were anchored to the skull chronically using dental acrylic (Fig. 1B). Signal reference was provided by a silver wire permanently threaded to the skin at the back of the neck.
(§1) The sciatic nerve was exposed unilaterally after skin incision at the mid-thigh level and blunt dissection of the biceps under deep anesthesia (isoflurane, 3%). Four chromic gut ligatures were tied loosely around the nerve 1 mm apart, and the overlying muscles and skin were closed in layers with 4–0 Ethilon sutures. A minor modification was introduced, consisting of loose ligatures, to minimize nerve damage and deafferentation. […] For CCI sham surgery, the sciatic nerve was similarly exposed but not ligated.
Pin connectors from EEG electrode was tethered to preamplifier headstage leading to a multichannel amplifier (iso-DAM8A; WPI Inc, Sarasota, FL). EEG waveforms were amplified (DAM80; World Precision Instruments, Sarasota, FL). […] Rats were allowed to move freely during EEG recording in Plexiglas chambers. After 15 minutes of acclimation, EEG recording was performed. Each EEG recording session was 3 to 5 minutes per animal. […] Only data during awake resting periods (defined as alertness but idle with no locomotor behavior) were further analyzed. Potentials generated due to vigorous myogenic activity (such as scratching) were excluded from analysis. These artifacts can be easily identified on the basis of monitoring the animal’s behavior, voltage amplitude, and spectral frequency typically >30 Hz, and they were further corroborated using an automated artifact detection algorithm recently developed in our laboratory (Supplemental Fig. 3)[59].
Fast Fourier transform was used to convert EEG waveform from the time domain to the frequency domain. Power values were generated in 27 frequency bins between 3 and 30 Hz. Awake resting periods were selected and Fast Fourier transformed, then average PSD was calculated. Mean PSD theta was computed between 4 and 8 Hz (Fig. 1C). Each ‘period’ was a continuous interval between 7 and 20 seconds, and 3–5 periods were averaged to obtain one value for mean theta per condition.
(§2) Values regarding theta power and PWL are reported as mean ± SEM and then converted to ratio relative to naive or CCI values for standardized representation of the data. One sample t-test was used for comparison between naïve and CCI, and paired t-test was used for comparison between CCI and after treatment in the same animals, respectively. Values regarding drug plasma concentration are reported as geomean (% of covariance) or range. Correlation analysis was used to compare EEG with PWL values. A P value < 0.05 was considered statistically significant and denoted by asterisk (*) in figures.

[4] = system: rat model of neuropathic pain (CCI); assay: Thermal hyperalgesia: paw withdrawal latency (PWL) in rats with CCI; format: in vivo
Text: as §1, with “deafferentation. Rats with this slightly modified CCI procedure gradually develop typical signs of sensory hypersensitivity associated with neuropathic pain, such as guarding the affected hind paw and thermal hypersensitivity.” for “deafferentation.”
EEG recording was performed first for ~10 min during resting states (no stimulation). The rat was then untethered from the EEG leads and placed in the behavioral apparatus for 15 min acclimation, followed by 5 min PWL testing. Thermal sensitivity of the hindpaw was assessed by measuring the latency of the withdrawal reflex in response to a radiant heat source (Paw withdrawal stimulator, Department of Anesthesiology, University of California, SD). A radiant heat source (4.7 A) was applied to the plantar surface of the hind paw. Paw withdrawal latencies (PWL) in response to 4 thermal stimulations were averaged for each paw. Stimulations to each paw were separated by at least 2 minutes intervals.
as §2

[5] = system: pain patients; conditions: equivalent human dose High (rat 30 mg/kg i.p.); cited from earlier work
[6] = cited from earlier work; for Plasma concentration in rat: mean (% coefficient of variation) ref 29; for Plasma concentration in rat (% covariance): mean ref Lau et al.
[7] = cited from earlier work
[8] = 80 mg/kg p.o., single administration at d14 after CCI, n = 5
[9] = 10 mg/kg p.o., single administration, d14 after CCI, 0.5 hr, n = 6

Question: Which Anti-allodynic effects [1] does the source give for `COc1ccc2c(c1OCc1ccccc1)C[C@@H](C(=O)O)N(C(=O)C(c1ccccc1)c1ccccc1)C2` [EMA400] here?
Answer: dose-dependent anti-allodynic effects

Question: With `CC(C)C[C@H](CN)CC(=O)O` [Pregabalin, pregabalin] as the compound, how does the “Linearity of plasma concentration at 30 min” value ([2]; doses of 3 and 100 mg/kg i.p., compared with previous report (10 and 30 mg/kg)) read?
Answer: good linearity

Question: What about the concentration at 30 min ([2]; rat, in vivo, 3 mg/kg i.p.) of the same compound?
Answer: 3.29 µg/mL

Question: And the concentration at 30 min ([2]; rat, in vivo, 100 mg/kg i.p.)?
Answer: 99.3 µg/mL

Question: What about the “Theta power relative to CCI” value ([3]; 3 mg/kg i.p., single dose, d14 after CCI, 0.5 h, mean ± SEM ratio, n = 7) of the same compound?
Answer: 0.91 ± 0.11

Question: What about the “Theta power relative to CCI” value ([3]; 10 mg/kg i.p., single dose, d14 after CCI, 0.5 h, mean ± SEM ratio, n = 7) of the same compound?
Answer: 0.83 ± 0.12

Question: And the “EEG efficacy (θ power)” value ([3]; 30 mg/kg (i.p.), pain phase Late)?
Answer: Side effects

Question: What about the “Theta power relative to CCI” value ([3]; 30 mg/kg i.p., single dose, d14 after CCI, 0.5 h, mean ± SEM ratio, n = 7) of the same compound?
Answer: 1.24 ± 0.29

Question: What about the “PWL relative to CCI” value ([4]; 3 mg/kg i.p., single dose, d14 after CCI, 0.5 h, mean ± SEM ratio) of the same compound?
Answer: 1.42 ± 0.10

Question: And the “PWL relative to CCI” value ([4]; 10 mg/kg i.p., single dose, d14 after CCI, 0.5 h, mean ± SEM ratio)?
Answer: 1.54 ± 0.08

Question: What about the “PWL relative to CCI” value ([4]; 30 mg/kg i.p., single dose, d14 after CCI, 0.5 h, mean ± SEM ratio) of the same compound?
Answer: 1.47 ± 0.14

Question: What about the “Clinical efficacy (VAS)” value [5] of the same compound?
Answer: Side effects

Question: What about the “Plasma concentration in rat” value ([6]; 10 mg/kg i.p., 30 min) of the same compound?
Answer: 11.3 (4.9) μg/mL

Question: And the “Plasma concentration in rat (% covariance)” value ([6]; 10 mg/kg, observation time 30 min)?
Answer: 11.3 (4.9)*b mg/mL

Question: And the “Plasma concentration in rat” value ([6]; 30 mg/kg i.p.)?
Answer: 33.0 (5.4) μg/mL

Question: What about the “Plasma concentration in rat (% covariance)” value ([6]; 30 mg/kg) of the same compound?
Answer: 33.0 (5.4)*b mg/mL

Question: And the Cmax in humans ([7]; 150 mg/day ref 31)?
Answer: 3.18 (21) μg/mL

Question: And the “Corresponding plasma concentration in human: Cmax” value ([7]; 150 mg/day ref Chew et al.)?
Answer: Sub-therapeutic dose Similar to Cmax of 150 mg/day: 3.18 (21) mg/mL [Chew et al.]

Question: What about the Cmax in humans ([7]; 300 mg/day ref 31) of the same compound?
Answer: 6.39 (20) μg/mL

Question: And the Cmax in humans ([7]; 600 mg/day ref 31)?
Answer: 11.4 (17) μg/mL

Question: What about the “Corresponding plasma concentration in human: steady state level” value ([7]; 600 mg/day, range ref Dworkin et al.) of the same compound?
Answer: Supra-therapeutic dose Slightly higher than steady state level of 600 mg/day: 0.244–18.6 mg/mL*a [Dworkin et al.]

Question: And the “Steady state level in humans” value ([7]; 600 mg/day, represented as range ref 33)?
Answer: 0.244 to 18.6 µg/mL

Question: Which Anti-allodynic effects [1] does the source give for `Cc1cc(Cn2cnc3c2CC(C(=O)O)N(C(=O)C(c2ccccc2)c2ccccc2)C3)ccc1N(C)C` (stereo not shown) [EMA200] here?
Answer: dose-dependent anti-allodynic effects

Question: Which “Theta power relative to CCI” value ([3]; 80 mg/kg p.o. daily starting d7 CCI, day 11, n = 7) does the source give for `CN(C)c1ccc(O)c2c1C[C@H]1C[C@H]3[C@H](N(C)C)C(O)=C(C(N)=O)C(=O)[C@@]3(O)C(O)=C1C2=O` [Minocycline, minocycline] here?
Answer: 0.95 ± 0.11

Question: And the “Theta power relative to CCI” value ([3]; 80 mg/kg p.o. daily starting d7 CCI, day 14, n = 5)?
Answer: 1.37 ± 0.45

Question: What about the “Theta power relative to CCI” value ([3]; 80 mg/kg p.o., d7 after CCI (first of daily doses), n = 7) of the same compound?
Answer: 0.71 ± 0.06

Question: What about the “Theta power relative to CCI” value [3, 8] of the same compound?
Answer: 0.96 ± 0.13

Question: What about the “PWL relative to CCI” value ([4]; 80 mg/kg p.o. daily treatment starting d7 CCI, day 7) of the same compound?
Answer: 0.91 ± 0.05

Question: And the “PWL relative to CCI” value ([4]; 80 mg/kg p.o. daily treatment starting d7 CCI, day 10)?
Answer: 1.00 ± 0.08

Question: What about the “PWL relative to CCI” value ([4]; 80 mg/kg p.o. daily treatment starting d7 CCI, day 14) of the same compound?
Answer: 0.94 ± 0.04

Question: And the “PWL relative to CCI” value [4, 8]?
Answer: 1.08 ± 0.10

Question: What about the “Corresponding plasma concentration in human: clinical dose” value ([7]; 200 mg/day, range ref Sumitani et al.) of the same compound?
Answer: Therapeutic dose (inconclusive) Higher than clinical (200 mg/day) dose: 3.19–4.59 mg/mL*a [Sumitani et al.]

Question: Which results are given for `COc1ccc2c(c1OCc1ccccc1)C[C@@H](C(=O)O)N(C(=O)C(c1ccccc1)c1ccccc1)C2` [EMA401]?
Answer: Distribution ([2]; rat, in vivo): peripherally restricted; Exposure after daily administration ([2]; rat, in vivo, po): not cumulative; Theta power relative to CCI ([3]; 10 mg/kg p.o. daily starting d7 after CCI, day 7, n = 6): 0.76 ± 0.07; Theta power relative to CCI ([3]; 10 mg/kg p.o. daily starting d7 after CCI, day 11, n = 6): 0.77 ± 0.08; Theta power relative to CCI ([3]; 10 mg/kg p.o. daily starting d7 after CCI, day 14, n = 6): 0.87 ± 0.12; Theta power relative to CCI [3, 9]: 0.71 ± 0.13; Longitudinal effects on theta power and PWL ([3]; CCI d7, 30 min after administration): analgesic effects; Longitudinal effects on theta power and PWL ([3]; CCI d7, 2 hours after administration): tendency for reversal; PWL relative to CCI ([4]; 10 mg/kg p.o. daily starting d7 after CCI, day 7): 1.60 ± 0.19; PWL relative to CCI ([4]; 10 mg/kg p.o. daily starting d7 after CCI, day 11): 2.13 ± 0.28; PWL relative to CCI ([4]; 10 mg/kg p.o. daily starting d7 after CCI, day 14): 2.27 ± 0.30; PWL relative to CCI [4, 9]: 1.26 ± 0.11; Corresponding plasma concentration in human: Cmax ([7]; 200 mg/day, mean (% covariance) ref Rice et al.): Therapeutic dose Similar to Cmax of 200 mg/day: 1.01 (65) mg/mL*b [Rice et al.]; Plasma concentration, clinical data ([7]; human ref 18): 1.01 (65) μg/mL
